Data from US9644006B2, “Carrier peptides for cell delivery” (priority 2011, dated 2017).
Like-named read-outs stand apart in the source and are kept apart here.

System: Vero cells
Assay: Effect of cytoskeleton depolymerizing drugs on delivery peptide (DynPro) movement
Assay type: cell-based, African green monkey
[1] = Vero cells with 10 μM DynPro, Nocodazole 2.5 μM 30 min, LatrunculinA 0.1 μM

Row | Structure (SMILES) | effect of the drug on delivery peptide transport movement [1] | effect of the drug on delivery peptide transport movement
1 | COC(=O)Nc1nc2ccc(C(=O)c3cccs3)cc2[nH]1 [Nocodazole] | abolished | –
2 | C/C1=C\[C@H](C)C[C@H](C)OC(=O)C[C@H](c2ccc(O)cc2)NC(=O)[C@@H](Cc2c(Br)[nH]c3ccccc23)N(C)C(=O)[C@H](C)NC(=O)[C@@H](C)C1 [Jasplakinolide] | – | did not inhibit this movement
3 | C/C1=C/C(=O)O[C@@H]2C[C@@H](CC[C@H](C)/C=C\C=C\CC1)O[C@@](O)([C@@H]1CSC(=O)N1)C2 [LatrunculinA] | transport was preserved | –
